Laboratory results as given in publication PMC5218480 (PLoS ONE, 2017).

Tested on: MV-4-11 cells
Assay: Gene expression microarray analysis (Affymetrix PrimeView) and GSEA
Type: cell-based, human
Parameters: RFU PODN (11730768_x_at) / Fold change /veh PODN (11730768_x_at) / RFU LINC00158 (11744669_a_at) / Fold change /veh LINC00158 (11744669_a_at) / RFU DUSP10 (11751237_a_at) / Fold change /veh DUSP10 (11751237_a_at) / RFU ID3 (11757404_x_at) / Fold change /veh ID3 (11757404_x_at) / RFU PLEKHG5 (11737974_s_at) / Fold change /veh PLEKHG5 (11737974_s_at) / RFU LRRC4B (11730491_at) / Fold change /veh LRRC4B (11730491_at) / RFU GIMAP4 (11747438_a_at) / Fold change /veh GIMAP4 (11747438_a_at) / RFU KRT8 (11758183_x_at) / Fold change /veh KRT8 (11758183_x_at) / RFU CNN1 (11734310_a_at) / Fold change /veh CNN1 (11734310_a_at) / RFU VPS37D (11726825_at) / Fold change /veh VPS37D (11726825_at) / RFU C10orf10 (11716522_x_at) / Fold change /veh C10orf10 (11716522_x_at) / RFU KIR2DL2 /// KIR2DL4 /// KIR2DL5A /// KIR2DL5B /// KIR2DS1 /// KIR2DS2 /// KIR2DS3 /// KIR2DS4 /// KIR3DL3 /// KIR3DL3 /// KIR3DS1 (11738374_at) / Fold change /veh KIR2DL2 /// KIR2DL4 /// KIR2DL5A /// KIR2DL5B /// KIR2DS1 /// KIR2DS2 /// KIR2DS3 /// KIR2DS4 /// KIR3DL3 /// KIR3DL3 /// KIR3DS1 (11738374_at) / RFU C1QL1 (11718748_at) / Fold change /veh C1QL1 (11718748_at) / RFU TMPRSS4 (11747572_a_at) / Fold change /veh TMPRSS4 (11747572_a_at) / RFU HAMP (11756126_x_at) / Fold change /veh HAMP (11756126_x_at) / RFU RNFT2 (11725882_a_at) / Fold change /veh RNFT2 (11725882_a_at) / RFU NR4A2 (11747474_a_at) / Fold change /veh NR4A2 (11747474_a_at) / RFU ABCC12 (11746883_a_at) / Fold change /veh ABCC12 (11746883_a_at) / RFU TMEM136 (11760407_x_at) / Fold change /veh TMEM136 (11760407_x_at) / RFU CLDN22 /// WWC2 (11732394_at) / Fold change /veh CLDN22 /// WWC2 (11732394_at) / RFU HLA-DPB1 (11760878_x_at) / Fold change /veh HLA-DPB1 (11760878_x_at) / RFU SPINT1 (11716480_a_at) / Fold change /veh SPINT1 (11716480_a_at) / RFU GAP43 (11754022_s_at) / Fold change /veh GAP43 (11754022_s_at) / RFU A4GNT (11735810_at) / Fold change /veh A4GNT (11735810_at) / RFU PRB3 (11715151_x_at) / Fold change /veh PRB3 (11715151_x_at) / RFU TUBB4B (11761932_at) / Fold change /veh TUBB4B (11761932_at) / RFU CAPN14 (11732068_a_at) / Fold change /veh CAPN14 (11732068_a_at) / RFU TMCC2 (11721928_a_at) / Fold change /veh TMCC2 (11721928_a_at) / RFU IRGQ (11745062_a_at) / Fold change /veh IRGQ (11745062_a_at) / RFU FAM174B (11720279_a_at) / Fold change /veh FAM174B (11720279_a_at) / RFU TMPRSS4 (11748680_a_at) / Fold change /veh TMPRSS4 (11748680_a_at) / RFU FAM212B (11763350_a_at) / Fold change /veh FAM212B (11763350_a_at) / RFU PLEKHG5 (11743358_a_at) / Fold change /veh PLEKHG5 (11743358_a_at) / RFU ZSCAN30 (11745921_a_at) / Fold change /veh ZSCAN30 (11745921_a_at) / RFU CMKLR1 (11741424_a_at) / Fold change /veh CMKLR1 (11741424_a_at) / RFU LOC101060620 /// MAPK8IP1 (11723275_at) / Fold change /veh LOC101060620 /// MAPK8IP1 (11723275_at) / RFU SPTSSB (11747773_x_at) / Fold change /veh SPTSSB (11747773_x_at) / RFU PRSS12 (11739890_at) / Fold change /veh PRSS12 (11739890_at) / RFU BIN1 (11741810_x_at) / Fold change /veh BIN1 (11741810_x_at) / RFU WNT11 (11732464_a_at) / Fold change /veh WNT11 (11732464_a_at) / RFU C10orf10 (11716521_a_at) / Fold change /veh C10orf10 (11716521_a_at) / RFU C5orf56 (11738089_at) / Fold change /veh C5orf56 (11738089_at) / RFU CYB561 (11721691_x_at) / Fold change /veh CYB561 (11721691_x_at) / RFU ANKRD19P (11752326_a_at) / Fold change /veh ANKRD19P (11752326_a_at) / RFU OR2T12 /// OR2T33 /// OR2T8 (11738714_s_at) / Fold change /veh OR2T12 /// OR2T33 /// OR2T8 (11738714_s_at) / RFU VCAN (11748164_a_at) / Fold change /veh VCAN (11748164_a_at) / RFU JSRP1 (11732532_at) / Fold change /veh JSRP1 (11732532_at) / RFU KRTAP10-11 (11738290_x_at) / Fold change /veh KRTAP10-11 (11738290_x_at) / RFU MYO3A (11730013_a_at) / Fold change /veh MYO3A (11730013_a_at) / RFU EBF3 (11725865_a_at) / Fold change /veh EBF3 (11725865_a_at) / RFU CAMK2N1 (11719241_x_at) / Fold change /veh CAMK2N1 (11719241_x_at) / RFU C5orf56 (11738088_a_at) / Fold change /veh C5orf56 (11738088_a_at) / RFU OLFML3 (11715873_a_at) / Fold change /veh OLFML3 (11715873_a_at) / RFU LOC100653217 /// NTM (11731650_a_at) / Fold change /veh LOC100653217 /// NTM (11731650_a_at) / RFU MAPK11 (11762145_a_at) / Fold change /veh MAPK11 (11762145_a_at) / RFU FIZ1 (11724087_x_at) / Fold change /veh FIZ1 (11724087_x_at) / RFU OASL (11726364_x_at) / Fold change /veh OASL (11726364_x_at) / RFU SOX15 (11748057_x_at) / Fold change /veh SOX15 (11748057_x_at) / RFU CD79A (11719716_a_at) / Fold change /veh CD79A (11719716_a_at) / RFU HIST1H1D (11736915_at) / Fold change /veh HIST1H1D (11736915_at) / RFU CASKIN2 (11723855_a_at) / Fold change /veh CASKIN2 (11723855_a_at) / RFU LOC730098 (11760151_x_at) / Fold change /veh LOC730098 (11760151_x_at) / RFU OR4N2 (11742367_at) / Fold change /veh OR4N2 (11742367_at) / RFU PRRT2 (11749266_a_at) / Fold change /veh PRRT2 (11749266_a_at) / RFU SNX32 (11753110_a_at) / Fold change /veh SNX32 (11753110_a_at) / RFU CDHR5 (11726645_a_at) / Fold change /veh CDHR5 (11726645_a_at) / RFU RCAN1 (11760418_a_at) / Fold change /veh RCAN1 (11760418_a_at) / RFU FAM167A (11723789_a_at) / Fold change /veh FAM167A (11723789_a_at) / RFU FAM26E (11764081_at) / Fold change /veh FAM26E (11764081_at) / RFU ISYNA1 (11749810_s_at) / Fold change /veh ISYNA1 (11749810_s_at) / RFU ACY1 (11761880_at) / Fold change /veh ACY1 (11761880_at) / RFU 11764098_at / Fold change /veh 11764098_at / RFU SAMD14 (11745864_x_at) / Fold change /veh SAMD14 (11745864_x_at) / RFU NPB (11741838_a_at) / Fold change /veh NPB (11741838_a_at) / RFU TMPRSS6 (11731388_a_at) / Fold change /veh TMPRSS6 (11731388_a_at) / RFU KRTAP10-2 (11738614_at) / Fold change /veh KRTAP10-2 (11738614_at) / RFU ARHGAP8 /// PRR5-ARHGAP8 (11727945_x_at) / Fold change /veh ARHGAP8 /// PRR5-ARHGAP8 (11727945_x_at) / RFU KRTAP5-7 /// NADSYN1 (11734609_at) / Fold change /veh KRTAP5-7 /// NADSYN1 (11734609_at) / RFU RASL12 (11751679_a_at) / Fold change /veh RASL12 (11751679_a_at) / RFU CDKN2B (11736163_a_at) / Fold change /veh CDKN2B (11736163_a_at) / RFU PRF1 (11729649_at) / Fold change /veh PRF1 (11729649_at) / RFU, ZNF638 /// ZNF638-IT1 / Fold change vs veh, ZNF638 /// ZNF638-IT1 / RFU, PANK3 / Fold change vs veh, PANK3 / RFU, SH3YL1 / Fold change vs veh, SH3YL1 / RFU, ZEB2 / Fold change vs veh, ZEB2 / RFU, NRIP1 / Fold change vs veh, NRIP1 / RFU, PTTG1IP / Fold change vs veh, PTTG1IP / RFU, CAPN2 / Fold change vs veh, CAPN2 / RFU, MED14 / Fold change vs veh, MED14 / RFU, SNORA58 / Fold change vs veh, SNORA58 / RFU, C1orf63 / Fold change vs veh, C1orf63 / RFU, LRRFIP1 / Fold change vs veh, LRRFIP1 / RFU, NDUFAF7 / Fold change vs veh, NDUFAF7 / RFU, SLC12A2 / Fold change vs veh, SLC12A2 / RFU, IBTK / Fold change vs veh, IBTK / RFU, ESF1 / Fold change vs veh, ESF1 / Fold change vs veh, TMEM50B / RFU, TAOK1 / Fold change vs veh, TAOK1 / RFU, ACBD3 / Fold change vs veh, ACBD3 / RFU, TMA16 / Fold change vs veh, TMA16 / RFU, RWDD3 / Fold change vs veh, RWDD3 / RFU, BCAT1 / Fold change vs veh, BCAT1 / RFU, EDEM3 / Fold change vs veh, EDEM3 / RFU, TMEM33 / Fold change vs veh, TMEM33 / RFU, WDR75 / Fold change vs veh, WDR75 / RFU, AHCTF1 / Fold change vs veh, AHCTF1 / RFU, TFRC / Fold change vs veh, TFRC / RFU, ZDHHC17 / Fold change vs veh, ZDHHC17 / RFU, NOM1 / Fold change vs veh, NOM1 / RFU, ARL8B / Fold change vs veh, ARL8B / RFU, ZBTB11 / Fold change vs veh, ZBTB11 / RFU, TAMM41 / Fold change vs veh, TAMM41 / RFU, KIAA1704 /// LOC100996395 / Fold change vs veh, KIAA1704 /// LOC100996395 / RFU, ING1 / Fold change vs veh, ING1 / RFU, TRMT61B / Fold change vs veh, TRMT61B / RFU, FUBP3 / Fold change vs veh, FUBP3 / RFU, TP53 / Fold change vs veh, TP53 / RFU, TNKS2 / Fold change vs veh, TNKS2 / RFU, ZFP14 / Fold change vs veh, ZFP14 / RFU, ACTR2 / Fold change vs veh, ACTR2 / RFU, PPP3R1 / Fold change vs veh, PPP3R1 / RFU, PIK3R1 / Fold change vs veh, PIK3R1 / RFU, HNRNPA1 / Fold change vs veh, HNRNPA1 / RFU, RNF170 / Fold change vs veh, RNF170 / RFU, ZNF28 / Fold change vs veh, ZNF28 / RFU, RNGTT / Fold change vs veh, RNGTT / RFU, OGT / Fold change vs veh, OGT / RFU, BRD1 / Fold change vs veh, BRD1 / RFU, MARS / Fold change vs veh, MARS / RFU, ZNF655 / Fold change vs veh, ZNF655 / RFU, FAHD1 / Fold change vs veh, FAHD1 / RFU, BDP1 / Fold change vs veh, BDP1 / RFU, LRRCC1 / Fold change vs veh, LRRCC1 / RFU, ARID1A / Fold change vs veh, ARID1A / RFU, ZNF146 / Fold change vs veh, ZNF146 / RFU, ZNF330 / Fold change vs veh, ZNF330 / RFU, GPN3 / Fold change vs veh, GPN3 / RFU, C9orf123 / Fold change vs veh, C9orf123 / RFU, N4BP2L2 / Fold change vs veh, N4BP2L2 / RFU, ARFIP1 / Fold change vs veh, ARFIP1 / RFU, FAM179B / Fold change vs veh, FAM179B / RFU, BCL10 / Fold change vs veh, BCL10 / RFU, UHRF1BP1L / Fold change vs veh, UHRF1BP1L / RFU, BET1 / Fold change vs veh, BET1 / RFU, CNOT2 / Fold change vs veh, CNOT2 / RFU, ZNF268 / Fold change vs veh, ZNF268 / Fold change vs veh, ZNF507 / RFU, DGCR2 / Fold change vs veh, DGCR2 / RFU, WDSUB1 / Fold change vs veh, WDSUB1 / Fold change vs veh, HSP90B1 /// MIR3652 / RFU, ADSS / Fold change vs veh, ADSS / RFU, GK / Fold change vs veh, GK / RFU, ZNF148 / Fold change vs veh, ZNF148 / RFU, TAF9 / Fold change vs veh, TAF9 / RFU, SLC1A5 / Fold change vs veh, SLC1A5 / RFU, SLMO2 / Fold change vs veh, SLMO2 / RFU, ABCC4 / Fold change vs veh, ABCC4 / RFU, LOC101060439 /// RAP1B / Fold change vs veh, LOC101060439 /// RAP1B / RFU, RFX7 / Fold change vs veh, RFX7 / RFU, GTPBP10 / Fold change vs veh, GTPBP10 / RFU, CNEP1R1 / Fold change vs veh, CNEP1R1 / RFU, BIVM-ERCC5 /// ERCC5 / Fold change vs veh, BIVM-ERCC5 /// ERCC5 / RFU, ILF3 / Fold change vs veh, ILF3 / RFU 11762660_at / Fold change /veh 11762660_at / RFU VCAN (11757783_s_at) / Fold change /veh VCAN (11757783_s_at) / RFU DDX43 (11728927_at) / Fold change /veh DDX43 (11728927_at) / RFU KRT8 (11758188_x_at) / Fold change /veh KRT8 (11758188_x_at) / RFU NKD1 (11759106_at) / Fold change /veh NKD1 (11759106_at) / RFU SRD5A1 (11742802_a_at) / Fold change /veh SRD5A1 (11742802_a_at) / RFU TPSAB1 /// TPSB2 (11721975_s_at) / Fold change /veh TPSAB1 /// TPSB2 (11721975_s_at) / RFU GSTM3 (11746129_a_at) / Fold change /veh GSTM3 (11746129_a_at) / RFU IL23R (11737362_x_at) / Fold change /veh IL23R (11737362_x_at) / RFU TMEM51 (11727254_a_at) / Fold change /veh TMEM51 (11727254_a_at) / RFU PIWIL2 (11732686_x_at) / Fold change /veh PIWIL2 (11732686_x_at) / RFU ORM1 (11744905_x_at) / Fold change /veh ORM1 (11744905_x_at) / RFU CCDC152 (11743942_at) / Fold change /veh CCDC152 (11743942_at) / RFU ECM1 (11717891_a_at) / Fold change /veh ECM1 (11717891_a_at) / RFU IL23R (11748794_a_at) / Fold change /veh IL23R (11748794_a_at) / RFU TNFAIP8L3 (11732012_x_at) / Fold change /veh TNFAIP8L3 (11732012_x_at) / RFU MBOAT4 (11741988_at) / Fold change /veh MBOAT4 (11741988_at) / RFU 11764193_at / Fold change /veh 11764193_at / RFU TMEM53 (11763286_at) / Fold change /veh TMEM53 (11763286_at) / RFU MAGEB2 (11727129_at) / Fold change /veh MAGEB2 (11727129_at) / RFU TMEM200A (11744735_a_at) / Fold change /veh TMEM200A (11744735_a_at) / RFU CCDC152 (11751479_a_at) / Fold change /veh CCDC152 (11751479_a_at) / RFU FAM211A (11726209_a_at) / Fold change /veh FAM211A (11726209_a_at) / RFU RGS16 (11746705_a_at) / Fold change /veh RGS16 (11746705_a_at) / RFU VCAN (11755009_s_at) / Fold change /veh VCAN (11755009_s_at) / RFU RHOB (11743442_s_at) / Fold change /veh RHOB (11743442_s_at) / RFU RGS16 (11720943_a_at) / Fold change /veh RGS16 (11720943_a_at) / RFU RGS16 (11720944_at) / Fold change /veh RGS16 (11720944_at) / RFU, VPS4B / Fold change vs veh, VPS4B / RFU, CREB1 / Fold change vs veh, CREB1 / RFU, DNAJC13 / Fold change vs veh, DNAJC13 / RFU, GNAQ / Fold change vs veh, GNAQ / RFU, CDK5R1 / Fold change vs veh, CDK5R1 / RFU, ZRANB3 / Fold change vs veh, ZRANB3 / RFU, CUL4A / Fold change vs veh, CUL4A / RFU, CCNY / Fold change vs veh, CCNY / RFU, UFL1 / Fold change vs veh, UFL1 / RFU, COG3 / Fold change vs veh, COG3 / RFU, DIAPH2 / Fold change vs veh, DIAPH2 / RFU, SKA2 / Fold change vs veh, SKA2 / RFU, AFF3 / Fold change vs veh, AFF3 / RFU, LMF1 / Fold change vs veh, LMF1 / RFU, IPO11 / Fold change vs veh, IPO11 / RFU, DFFB / Fold change vs veh, DFFB / RFU, FOXP1 / Fold change vs veh, FOXP1 / RFU, CARD8 / Fold change vs veh, CARD8 / RFU, STRN3 / Fold change vs veh, STRN3 / RFU, ADK / Fold change vs veh, ADK / RFU, RASSF2 / Fold change vs veh, RASSF2 / RFU, WIPF1 / Fold change vs veh, WIPF1 / RFU, LARP1B / Fold change vs veh, LARP1B / RFU, RASA1 / Fold change vs veh, RASA1 / RFU, RB1 / Fold change vs veh, RB1 / RFU, PPFIA1 / Fold change vs veh, PPFIA1 / RFU, MAT2A / Fold change vs veh, MAT2A / RFU, CCT5 / Fold change vs veh, CCT5 / RFU, WDR92 / Fold change vs veh, WDR92 / RFU, CUX1 / Fold change vs veh, CUX1 / RFU, TTC7A / Fold change vs veh, TTC7A / RFU, TMEM135 / Fold change vs veh, TMEM135 / RFU, DEPTOR / Fold change vs veh, DEPTOR / RFU, CPM / Fold change vs veh, CPM / RFU, DNAJB6 / Fold change vs veh, DNAJB6 / RFU, CACNA2D3 / Fold change vs veh, CACNA2D3 / RFU, DTX4 / Fold change vs veh, DTX4 / RFU, TFCP2 / Fold change vs veh, TFCP2 / RFU, GMCL1 /// GMCL1P1 / Fold change vs veh, GMCL1 /// GMCL1P1 / RFU, AEBP2 / Fold change vs veh, AEBP2 / RFU, SNHG1 /// SNORD22 /// SNORD25 /// SNORD26 /// SNORD27 /// SNORD28 /// SNORD29 /// SNORD31 / Fold change vs veh, SNHG1 /// SNORD22 /// SNORD25 /// SNORD26 /// SNORD27 /// SNORD28 /// SNORD29 /// SNORD31 / Fold change (Aza/veh), C12orf56 (ProbeSet 11735607_a_at) / Fold change (ACY-1035/veh), C12orf56 (ProbeSet 11735607_a_at) / Fold change (Aza/veh), FGFR1OP (ProbeSet 11751329_s_at) / Fold change (ACY-1035/veh), FGFR1OP (ProbeSet 11751329_s_at) / Fold change (Aza/veh), VPS36 (ProbeSet 11739960_a_at) / Fold change (ACY-1035/veh), VPS36 (ProbeSet 11739960_a_at) / RFU SYPL1 (11715823_x_at) / Fold change /veh SYPL1 (11715823_x_at) / RFU IGFBP7 (11715501_s_at) / Fold change /veh IGFBP7 (11715501_s_at) / RFU REEP3 (11722064_at) / Fold change /veh REEP3 (11722064_at) / RFU IGLL1 (11728026_x_at) / Fold change /veh IGLL1 (11728026_x_at): dose or concentration left out as unconfirmed
Settings: MV-4-11 cells, 48 hours

`Nc1ncn([C@@H]2O[C@H](CO)[C@@H](O)[C@H]2O)c(=O)n1` [azacitidine] was tested, and the “Fold change /veh JSRP1 (11732532_at)” value was 1.00.
